pKi: −log10 of the molar value.
How the values were obtained:
[1] = molecular target: T1, 5-hydroxytryptamine receptor 1A (Rattus norvegicus, UniProt P19327)
T1 sequence (P19327 whole entry): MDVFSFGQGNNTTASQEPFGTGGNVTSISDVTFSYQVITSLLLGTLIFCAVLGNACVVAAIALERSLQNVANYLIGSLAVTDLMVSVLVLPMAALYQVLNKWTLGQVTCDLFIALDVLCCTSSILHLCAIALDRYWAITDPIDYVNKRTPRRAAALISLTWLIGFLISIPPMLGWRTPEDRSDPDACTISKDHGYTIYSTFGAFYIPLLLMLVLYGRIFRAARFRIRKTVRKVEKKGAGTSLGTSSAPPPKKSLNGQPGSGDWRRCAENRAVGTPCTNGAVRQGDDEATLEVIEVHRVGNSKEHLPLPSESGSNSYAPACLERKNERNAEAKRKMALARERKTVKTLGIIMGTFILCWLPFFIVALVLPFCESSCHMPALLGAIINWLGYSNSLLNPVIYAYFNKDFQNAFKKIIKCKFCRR

[2] = molecular target: T2, Muscarinic acetylcholine receptor M2 (Rattus norvegicus, UniProt P10980)
T2 sequence (P10980 whole entry): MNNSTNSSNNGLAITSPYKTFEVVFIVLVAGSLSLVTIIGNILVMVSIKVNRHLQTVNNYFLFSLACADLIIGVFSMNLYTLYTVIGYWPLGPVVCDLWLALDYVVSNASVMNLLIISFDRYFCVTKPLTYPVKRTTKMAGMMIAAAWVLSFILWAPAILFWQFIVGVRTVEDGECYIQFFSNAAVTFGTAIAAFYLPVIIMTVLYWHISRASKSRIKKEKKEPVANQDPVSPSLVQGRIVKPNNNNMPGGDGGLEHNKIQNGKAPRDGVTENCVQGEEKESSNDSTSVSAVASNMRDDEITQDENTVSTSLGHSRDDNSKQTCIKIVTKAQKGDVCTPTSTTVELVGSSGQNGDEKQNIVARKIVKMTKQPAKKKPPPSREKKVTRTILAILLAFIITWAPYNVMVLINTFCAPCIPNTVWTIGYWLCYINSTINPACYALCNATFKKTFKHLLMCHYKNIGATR

[3] = molecular target: T3, Alpha-2A adrenergic receptor (Homo sapiens, UniProt P08913)
T3 sequence (P08913 whole entry): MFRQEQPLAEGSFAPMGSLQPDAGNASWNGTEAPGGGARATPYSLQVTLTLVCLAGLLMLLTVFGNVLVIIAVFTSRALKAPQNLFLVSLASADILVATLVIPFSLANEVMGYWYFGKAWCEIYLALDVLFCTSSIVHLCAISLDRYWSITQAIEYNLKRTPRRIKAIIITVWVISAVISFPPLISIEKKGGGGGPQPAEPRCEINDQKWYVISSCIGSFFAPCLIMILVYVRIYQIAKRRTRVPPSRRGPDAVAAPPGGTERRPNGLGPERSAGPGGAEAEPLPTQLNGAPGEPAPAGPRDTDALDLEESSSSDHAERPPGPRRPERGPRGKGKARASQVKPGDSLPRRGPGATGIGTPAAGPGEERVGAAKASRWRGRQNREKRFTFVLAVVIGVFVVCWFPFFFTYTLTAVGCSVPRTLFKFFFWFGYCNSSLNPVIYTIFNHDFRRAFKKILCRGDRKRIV

[4] = molecular target: Sodium-dependent serotonin transporter (Rattus norvegicus, UniProt P31652)
Sequence of Sodium-dependent serotonin transporter (P31652 whole entry): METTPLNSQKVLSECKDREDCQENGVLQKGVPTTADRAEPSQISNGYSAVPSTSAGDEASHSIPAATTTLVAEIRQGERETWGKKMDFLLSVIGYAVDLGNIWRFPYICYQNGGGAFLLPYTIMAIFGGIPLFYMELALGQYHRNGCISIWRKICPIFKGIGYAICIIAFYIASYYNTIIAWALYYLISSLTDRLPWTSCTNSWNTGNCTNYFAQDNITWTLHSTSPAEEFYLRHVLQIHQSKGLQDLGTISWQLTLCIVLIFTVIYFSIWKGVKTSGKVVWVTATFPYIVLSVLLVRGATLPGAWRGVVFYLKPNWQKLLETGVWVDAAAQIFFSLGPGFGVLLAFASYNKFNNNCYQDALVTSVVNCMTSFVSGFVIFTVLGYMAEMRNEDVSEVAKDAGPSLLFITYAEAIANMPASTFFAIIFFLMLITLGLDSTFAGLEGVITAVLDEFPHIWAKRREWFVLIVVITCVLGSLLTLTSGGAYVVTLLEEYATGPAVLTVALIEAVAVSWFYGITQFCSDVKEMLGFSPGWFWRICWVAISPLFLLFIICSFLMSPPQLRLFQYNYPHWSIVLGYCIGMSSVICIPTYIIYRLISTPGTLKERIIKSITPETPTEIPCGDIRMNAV

Structure (SMILES) | pKi [1] | pKi [2] | pKi [3] | pKi [4]
CCc1nn(CCCN2CCN(c3cccc(Cl)c3)CC2)c(=O)n1CCOc1ccccc1 [2-{3-[4-(3-chlorophenyl)piperazin-1-yl]propyl}-5-ethyl-4-(2-phenoxyethyl)-2,4-dihydro-3H-1,2,4-triazol-3-one] | 7.28 | 5.34 | – | –
CNCCCN1c2ccccc2CCc2ccccc21 [Desmethylimipramine] | – | 7.43 | – | –
CN(C)CCC=C1c2ccccc2CCc2ccccc21 | 6.89 | 8.59 | 6.94 | –
COc1ccc(C(CN(C)C)C2(O)CCCCC2)cc1 (stereo unspecified) [NSC_62923] | < 5.00 | < 5.00 | < 5.00 | –
Fc1ccc([C@@H]2CCNC[C@H]2COc2ccc3c(c2)OCO3)cc1 [PAROXETINE] | < 5.00 | 7.38 | – | –
Clc1cccc(N2CCNCC2)c1 [mCPP] | 7.80 | 5.33 | 6.95 | 6.66
CN[C@@H]1CC[C@@H](c2ccc(Cl)c(Cl)c2)c2ccccc21 [[4-(3,4-Dichloro-phenyl)-1,2,3,4-tetrahydro-naphthalen-1-yl]-methyl-amine] | 5.44 | 6.63 | – | –
CC(O)c1nn(CCCN2CCN(c3ccc(Cl)cc3)CC2)c(=O)n1CCOc1ccccc1 (stereo unspecified) [NSC_127096] | 7.25 | < 5.00 | 7.20 | 6.21
O=c1[nH]n(CCCN2CCN(c3cccc(Cl)c3)CC2)c(=O)n1CCOc1ccccc1 [Triazoledione] | 5.86 | < 5.00 | 5.72 | < 5.00
O=c1n(CCCN2CCN(c3cccc(Cl)c3)CC2)nc2ccccn12 [2-{3-[4-(3-chlorophenyl)piperazin-1-yl]propyl}[1,2,4]triazolo[4,3-a]pyridin-3(2H)-one] | – | < 5.00 | – | –
